Test results reported in PubChem BioAssay (NCI).
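Test compounds were applied to cells in 96-well plates for 48 hours at 5 doses. Definition used: TGI = concentration required for complete inhibition of growth.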

Experiments:
Test in all cases: NCI tumour cell line growth inhibition, 48 h
SF-539 CNS = test system: SF-539 CNS
OVCAR-5 ovarian = test system: OVCAR-5 ovarian
UO-31 renal = test system: UO-31 renal
M14 melanoma = test system: M14 melanoma
HOP-62 NSCLC = test system: HOP-62 NSCLC
ACHN renal = test system: ACHN renal
HCT-116 colon = test system: HCT-116 colon
SN12C renal = test system: SN12C renal
SF-268 CNS = test system: SF-268 CNS
U251 CNS = test system: U251 CNS
HCC-2998 colon = test system: HCC-2998 colon
HCT-15 colon = test system: HCT-15 colon
HS 578T breast = test system: HS 578T breast
SR leukemia = test system: SR leukemia

SMILES	TGI (SF-539 CNS) [µM]	TGI (OVCAR-5 ovarian) [µM]	TGI (UO-31 renal) [µM]	TGI (M14 melanoma) [µM]	TGI (HOP-62 NSCLC) [µM]	TGI (ACHN renal) [µM]	TGI (HCT-116 colon) [µM]	TGI (SN12C renal) [µM]	TGI (SF-268 CNS) [µM]	TGI (U251 CNS) [µM]	TGI (HCC-2998 colon) [µM]	TGI (HCT-15 colon) [µM]	TGI (HS 578T breast) [µM]	TGI (SR leukemia) [µM]
COc1ccc(/C=C2\C(=O)N(NC(C)=O)c3ccccc32)cc1	> 100	> 100	> 100	> 100	> 100	> 100	> 100	> 100	> 100	> 100	> 100	> 100		
Cc1cccc2sc(NC(=O)NS(=O)(=O)n3cnc4ccccc43)nc12	78	89.4	61.5	> 100	> 100	> 100	99.3	> 100	> 100	48.2	30.3	> 100	52.1	
CC(C)C(Cl)CCC(C)(Cl)C(=O)CBr (centres undefined)	32.1	26.7	15	11.3	19.6	19.3	9.06	29.4	56	25.8	33.1	10.6	23.1	
Cc1cc2nc3c(C#N)c(-c4ccccc4)/c(=C\Nc4ccc(F)cc4)c(=O)n3c2cc1C	> 100	> 100	> 100	> 100	> 100	> 100	> 100	> 100	> 100	> 100	> 100	> 100		
NNC(=O)C(=O)NN=C(C(Cl)(Cl)CO)C(Cl)(Cl)CO	61.2	92.2	> 100	94	> 100	> 100	66.1	> 100	> 100	53.2	> 100	75.5		50.6
NNc1nnc(CCCCCCCCc2nnc(NN)n2N)n1N	> 100	> 100	> 100	> 100	> 100	> 100	> 100	> 100	> 100	49	> 100	> 100		
C1CSCCSCCCS[C@@H]2CCCCC2SC1 (some centres undefined)	> 100	> 100	> 100	> 100	> 100	> 100	> 100	> 100	> 100	> 100	> 100	28.8		
O=C(c1ccccc1)C1(Br)S(=O)(=O)OCCOS1(=O)=O	> 100	> 100	> 100	> 100	> 100	> 100	> 100	> 100	> 100	> 100	> 100	> 100		> 100
CCOC(=O)C1S(=O)(=O)OCCOS1(=O)=O	> 100		> 100	> 100	> 100		> 100	> 100	> 100		> 100			> 100
